In patent publication US20250120890A1, “Oral Care Compositions Comprising Hops Beta Acids And Tin” (The Procter & Gamble Company, priority 2023, published 2025):

Assay: Headspace measurement of DMDS and MeSH from dentifrice samples by SPME GC-SCD
Assay type: physicochemical
Conditions: 0.100 wt % in stannous dentifrice, each pair of samples with/without
Description: The oral care compositions of TABLE 2 were prepared by combining one or more humectants, water, sweetener(s), and metal salts, buffers, dyes, and/or stabilizing agents to create a liquid mixture. The liquid mixture was homogenized at 25° C. until homogeneous and completely dissolved. Next, sodium hydroxide (50% solution) was added to the liquid mixture, and the liquid mixture was homogenized at 25° C. until homogeneous and completely dissolved. A separate powder mixture was prepared by combining the abrasive silica, thickening silica, and opacifier, with any thickening agents, such as xanthan gum, Gantrez, and/or sodium carboxymethylcellulose. The powder mixture was then combined with the liquid mixture and homogenized completely. Next, the surfactant, such as sodium lauryl sulfate, flavor, optional Michael acceptor (“MA”), and optional hops extract were added to the mixture. The contents were homogenized at 25° C. until homogeneous, and entrained air was removed by vacuum. […]
Each salt described in Table 3 was weighed with a Mettler Toledo XSE 205 DualRange balance (Mettler Toledo USA, Columbus, OH, USA) and quantitatively transferred to a 600-mL beaker. […]

C/C=C/C(=O)C1C(C)C=CCC1(C)C (stereo not shown) [delta-damascone]
Effect on headspace levels of MeSH and DMDS: reduced the headspace levels of MeSH and DMDS substantially
